The source made the active and inactive calls. The rule behind the calls is not given here.
Key:
Type in all cases: functional
[1] = test system: Staphylococcus epidermidis; assay: Inhibitory activity against MraY/MurG at a concentration of 6.25 ug/mL; No activity
[2] = test system: Staphylococcus epidermidis; assay: Compound was tested for reduction in the production of lipid II relative to the control(judged by intensity) on the film, inhibition of either MraY or MurG at a dose of 100 ug/mL
[3] = test system: Staphylococcus epidermidis; assay: Inhibitory activity against MraY/MurG at a concentration of 50 ug/mL; No activity
[4] = test system: Staphylococcus epidermidis; assay: Inhibitory activity against MraY/MurG at a concentration of 25 ug/mL; No activity
[5] = test system: Staphylococcus epidermidis; assay: Inhibitory activity against MraY/MurG at a concentration of 100 ug/mL; No activity
[6] = test system: Staphylococcus epidermidis; assay: Compound was tested for reduction in the production of lipid II relative to the control(judged by intensity) on the film, inhibition of either MraY or MurG at a dose of 6.25 ug/mL
[7] = test system: Staphylococcus epidermidis; assay: Compound was tested for reduction in the production of lipid II relative to the control(judged by intensity) on the film, inhibition of either MraY or MurG at a dose of 50 ug/mL
[8] = test system: Staphylococcus epidermidis; assay: Compound was tested for reduction in the production of lipid II relative to the control(judged by intensity) on the film, inhibition of either MraY or MurG at a dose of 25 ug/mL
[9] = test system: Staphylococcus epidermidis; assay: Inhibitory activity against MraY/MurG at a concentration of 100 ug/mL; Not activity
[10] = test system: Staphylococcus epidermidis; assay: Inhibitory activity against MraY/MurG at a concentration of 6.25 ug/mL No activity
[11] = test system: Staphylococcus epidermidis; assay: Inhibitory activity against MraY/MurG at a concentration of 6.25 ug/mL; Not activity

Row | SMILES | Inhibitory activity [1] | Inhibitory activity [2] | Inhibitory activity [3] | Inhibitory activity [4] | Inhibitory activity [5] | Inhibitory activity [6] | Inhibitory activity [7] | Inhibitory activity [8] | Inhibitory activity [9] | Inhibitory activity [10] | Inhibitory activity [11]
1 | CO[C@H]1[C@H](OC([C@H]2O[C@@H](n3ccc(=O)[nH]c3=O)[C@H](O)[C@@H]2O)[C@@H](C(=O)O)N(CCCCCCCCCCCCN2CCOCC2)CCCNC(=O)[C@@H](NC(=O)[C@@H](NC(=O)N[C@H](C(=O)O)C(C)C)[C@@H]2CCN=C(N)N2)[C@@H](O)C(C)C)O[C@H](CN)[C@H]1O (some centres undefined) | inactive | Active | Active | inactive | – | – | – | – | – | – | –
2 | CCCCCCCCCCCCNC(=O)NC[C@H]1O[C@@H](OC(C2C(=O)N(CCCCCCCCCCCC)C(=O)N2CCCNC(=O)[C@@H](NC(=O)[C@@H](NC(=O)N[C@H](C(=O)O)C(C)C)[C@@H]2CCN=C(N)N2)[C@@H](O)C(C)C)[C@H]2O[C@@H](n3ccc(=O)[nH]c3=O)[C@H](O)[C@@H]2O)[C@H](OC)[C@@H]1O (some centres undefined) | Active | – | Active | Active | Active | – | – | – | – | – | –
3 | COc1ccc(NC(=O)NC[C@H]2O[C@@H](OC(C3C(=O)N(c4ccc(OC)cc4)C(=O)N3CCCNC(=O)[C@@H](NC(=O)[C@@H](NC(=O)N[C@H](C(=O)O)C(C)C)[C@@H]3CCN=C(N)N3)[C@@H](O)C(C)C)[C@H]3O[C@@H](n4ccc(=O)[nH]c4=O)[C@H](O)[C@@H]3O)[C@H](OC)[C@@H]2O)cc1 (some centres undefined) | Active | – | Active | Active | Active | – | – | – | – | – | –
4 | CCCCCN1C(=O)C(C(O[C@@H]2O[C@H](CN)[C@@H](O)[C@H]2OC)[C@H]2O[C@@H](n3ccc(=O)[nH]c3=O)[C@H](O)[C@@H]2O)N(CCCNC(=O)[C@@H](NC(=O)[C@@H](NC(=O)N[C@H](C(=O)O)C(C)C)[C@@H]2CCN=C(N)N2)[C@@H](O)C(C)C)C1=O (some centres undefined) | inactive | Active | Active | inactive | – | – | – | – | – | – | –
5 | CO[C@H]1[C@H](OC(C2C(=O)N(Cc3ccccc3)C(=O)N2CCCNC(=O)[C@@H](NC(=O)[C@@H](NC(=O)N[C@H](C(=O)O)C(C)C)[C@@H]2CCN=C(N)N2)[C@@H](O)C(C)C)[C@H]2O[C@@H](n3ccc(=O)[nH]c3=O)[C@H](O)[C@@H]2O)O[C@H](CN)[C@H]1O (some centres undefined) | – | Active | – | – | – | Active | Active | Active | – | – | –
6 | CO[C@H]1[C@H](OC([C@H]2O[C@@H](n3ccc(=O)[nH]c3=O)[C@H](O)[C@@H]2O)[C@@H](C(=O)O)N(CCCNC(=O)[C@@H](NC(=O)[C@@H](NC(=O)N[C@H](C(=O)O)C(C)C)[C@@H]2CCN=C(N)N2)[C@@H](O)C(C)C)Cc2ccc(-c3ccccc3)cc2)O[C@H](CNCc2ccc(-c3ccccc3)cc2)[C@H]1O (some centres undefined) | Active | – | Active | Active | Active | – | – | – | – | – | –
7 | CCCCCN(CCCNC(=O)[C@@H](NC(=O)[C@@H](NC(=O)N[C@H](C(=O)O)C(C)C)[C@@H]1CCN=C(N)N1)[C@@H](O)C(C)C)[C@H](C(=O)O)C(O[C@@H]1O[C@H](CN)[C@@H](O)[C@H]1OC)[C@H]1O[C@@H](n2ccc(=O)[nH]c2=O)[C@H](O)[C@@H]1O (some centres undefined) | inactive | Active | Active | inactive | – | – | – | – | – | – | –
8 | CCCCCCCCNC(=O)NC[C@H]1O[C@@H](OC(C2C(=O)N(CCCCCCCC)C(=O)N2CCCNC(=O)[C@@H](NC(=O)[C@@H](NC(=O)N[C@H](C(=O)O)C(C)C)[C@@H]2CCN=C(N)N2)[C@@H](O)C(C)C)[C@H]2O[C@@H](n3ccc(=O)[nH]c3=O)[C@H](O)[C@@H]2O)[C@H](OC)[C@@H]1O (some centres undefined) | Active | – | Active | Active | – | – | – | – | Active | – | –
9 | CCCCCCCCCCCCN1C(=O)C(C(O[C@@H]2O[C@H](CN)[C@@H](O)[C@H]2OC)[C@H]2O[C@@H](n3ccc(=O)[nH]c3=O)[C@H](O)[C@@H]2O)N(CCCNC(=O)[C@@H](NC(=O)[C@@H](NC(=O)N[C@H](C(=O)O)C(C)C)[C@@H]2CCN=C(N)N2)[C@@H](O)C(C)C)C1=O (some centres undefined) | – | Active | – | – | – | Active | Active | Active | – | – | –
10 | CCCCCCCCCCCCN(CCCNC(=O)[C@@H](NC(=O)[C@@H](NC(=O)N[C@H](C(=O)O)C(C)C)[C@@H]1CCN=C(N)N1)[C@@H](O)C(C)C)[C@H](C(=O)O)C(O[C@@H]1O[C@H](CN)[C@@H](O)[C@H]1OC)[C@H]1O[C@@H](n2ccc(=O)[nH]c2=O)[C@H](O)[C@@H]1O (some centres undefined) | – | Active | – | inactive | – | – | Active | – | – | inactive | –
11 | CO[C@H]1[C@H](OC([C@H](NCCCNC(=O)[C@@H](NC(=O)[C@@H](NC(=O)N[C@H](C(=O)O)C(C)C)[C@@H]2CCN=C(N)N2)[C@@H](O)C(C)C)C(=O)O)[C@H]2O[C@@H](n3ccc(=O)[nH]c3=O)[C@H](O)[C@@H]2O)O[C@H](C/N=C(C)/C=C(/C)O)[C@H]1O (some centres undefined) | Active | – | Active | Active | Active | – | – | – | – | – | –
12 | CO[C@H]1[C@H](OC(C2C(=O)N(c3ccc(F)cc3)C(=O)N2CCCNC(=O)[C@@H](NC(=O)[C@@H](NC(=O)N[C@H](C(=O)O)C(C)C)[C@@H]2CCN=C(N)N2)[C@@H](O)C(C)C)[C@H]2O[C@@H](n3ccc(=O)[nH]c3=O)[C@H](O)[C@@H]2O)O[C@H](CN)[C@H]1O (some centres undefined) | – | Active | – | – | – | – | Active | Active | – | – | Active
13 | CO[C@H]1[C@H](OC(C2C(=O)N(c3ccc(F)cc3)C(=O)N2CCCNC(=O)[C@@H](NC(=O)[C@@H](NC(=O)N[C@H](C(=O)O)C(C)C)[C@@H]2CCN=C(N)N2)[C@@H](O)C(C)C)[C@H]2O[C@@H](n3ccc(=O)[nH]c3=O)[C@H](O)[C@@H]2O)O[C@H](CNC(=O)Nc2ccc(F)cc2)[C@H]1O (some centres undefined) | Active | – | Active | Active | Active | – | – | – | – | – | –
14 | CO[C@H]1[C@H](OC([C@H](NCCCNC(=O)[C@@H](NC(=O)[C@@H](NC(=O)N[C@H](C(=O)O)C(C)C)[C@@H]2CCN=C(N)N2)[C@@H](O)C(C)C)C(=O)O)[C@H]2O[C@@H](n3ccc(=O)[nH]c3=O)[C@H](O)[C@@H]2O)O[C@H](CN)[C@H]1O (some centres undefined) | – | Active | – | – | – | Active | Active | Active | – | – | –
15 | CCCCCNC[C@H]1O[C@@H](OC([C@H]2O[C@@H](n3ccc(=O)[nH]c3=O)[C@H](O)[C@@H]2O)[C@@H](C(=O)O)N(CCCCC)CCCNC(=O)[C@@H](NC(=O)[C@@H](NC(=O)N[C@H](C(=O)O)C(C)C)[C@@H]2CCN=C(N)N2)[C@@H](O)C(C)C)[C@H](OC)[C@@H]1O (some centres undefined) | inactive | – | inactive | inactive | inactive | – | – | – | – | – | –
16 | CCCCCCNC(=O)NC[C@H]1O[C@@H](OC(C2C(=O)N(CCCCCC)C(=O)N2CCCNC(=O)[C@@H](NC(=O)[C@@H](NC(=O)N[C@H](C(=O)O)C(C)C)[C@@H]2CCN=C(N)N2)[C@@H](O)C(C)C)[C@H]2O[C@@H](n3ccc(=O)[nH]c3=O)[C@H](O)[C@@H]2O)[C@H](OC)[C@@H]1O (some centres undefined) | Active | – | Active | Active | Active | – | – | – | – | – | –
